Measurements published in US10947188B2, “Small molecule ferroptosis inducers” (THE TRUSTEES OF COLUMBIA UNIVERSITY IN THE CITY OF NEW YORK, priority 2016, dated 2021).

Test system: BJeLR
Test: Modulatory profiling: Alamar Blue viability, lethal compound cotreated with death modulator (EC50, AUC)
Type: cell-based, human
Design: AUC, modulator BJ.Gd3+ / AUC, modulator BJ.LNAME / AUC, modulator BJ.Lmin / AUC, modulator BJ.3MA / AUC, modulator BJ.ALLN / AUC, modulator BJ.Boc D / AUC, modulator BJ.CHX / AUC, modulator BJ.Co2+ / AUC, modulator BJ.Nec-1 / AUC, modulator BJ.Pepstatin / AUC, modulator BJ.TLCK / AUC, modulator BJ.atoc / AUC, modulator BJ.trolox / AUC, modulator BJ.zVAD: unit not given beside the values
Conditions: for AUC, modulator BJ.3MA / AUC, modulator BJ.ALLN / AUC, modulator BJ.Boc D / AUC, modulator BJ.CHX / AUC, modulator BJ.Co2+ / AUC, modulator BJ.DPQ / AUC, modulator BJ.Gd3+ / AUC, modulator BJ.LNAME / AUC, modulator BJ.Lmin/NAD+ / AUC, modulator BJ.Lmin / AUC, modulator BJ.NAD+ / AUC, modulator BJ.NMMA / AUC, modulator BJ.Nec-1 / AUC, modulator BJ.Pepstatin / AUC, modulator BJ.TLCK / AUC, modulator BJ.atoc / AUC, modulator BJ.trolox / AUC, modulator BJ.zVAD: BJeLR cells, modulatory profile value (AUC); for AUC, modulator BJ.3MA: lethal compound cotreated with modulator 3MA; for AUC, modulator BJ.ALLN: lethal compound cotreated with modulator ALLN; for AUC, modulator BJ.Boc D: lethal compound cotreated with modulator Boc D; for AUC, modulator BJ.CHX: lethal compound cotreated with modulator CHX; for AUC, modulator BJ.Co2+: lethal compound cotreated with modulator Co2+; for AUC, modulator BJ.DPQ: lethal compound cotreated with modulator DPQ; for AUC, modulator BJ.Gd3+: lethal compound cotreated with modulator Gd3+; for AUC, modulator BJ.LNAME: lethal compound cotreated with modulator LNAME; for AUC, modulator BJ.Lmin/NAD+: lethal compound cotreated with modulator Lmin/NAD+; for AUC, modulator BJ.Lmin: lethal compound cotreated with modulator Lmin; for AUC, modulator BJ.NAD+: lethal compound cotreated with modulator NAD+; for AUC, modulator BJ.NMMA: lethal compound cotreated with modulator NMMA; for AUC, modulator BJ.Nec-1: lethal compound cotreated with modulator Nec-1; for AUC, modulator BJ.Pepstatin: lethal compound cotreated with modulator Pepstatin; for AUC, modulator BJ.TLCK: lethal compound cotreated with modulator TLCK; for EC50: Homo sapiens, BJeLR, 48 h; for AUC, modulator BJ.atoc: lethal compound cotreated with modulator atoc; for AUC, modulator BJ.trolox: lethal compound cotreated with modulator trolox; for AUC, modulator BJ.zVAD: lethal compound cotreated with modulator zVAD
[1] = cotreated with antioxidant Trolox
[2] = cotreated with antioxidant atoc
[3] = cotreated with iron-chelator Lmim

Row | Compound | AUC, modulator BJ.3MA | AUC, modulator BJ.ALLN | AUC, modulator BJ.Boc D | AUC, modulator BJ.CHX | AUC, modulator BJ.Co2+ | AUC, modulator BJ.DPQ | AUC, modulator BJ.Gd3+ | AUC, modulator BJ.LNAME | AUC, modulator BJ.Lmin/NAD+ | AUC, modulator BJ.Lmin | AUC, modulator BJ.NAD+ | AUC, modulator BJ.NMMA | AUC, modulator BJ.Nec-1 | AUC, modulator BJ.Pepstatin | AUC, modulator BJ.TLCK | EC50 (DMSO) | EC50 (cotreated with Lmim_NAD) | AUC, modulator BJ.atoc | AUC, modulator BJ.trolox | AUC, modulator BJ.zVAD | also measured
1 | O=S(=O)(c1ccc2c(c1)C(=NO)c1cc(S(=O)(=O)N3CCCCC3)ccc1-2)N1CCCCC1 [CIL56, 2,7-bis(piperidin-1-ylsulfonyl)-9H-fluoren-9-one oxime] | 0.1459 | 0.05831 | −0.01043 | −0.07221 | 0.1263 | 0.03219 | 0.004997 | 0.005978 | 0.2194 | 0.1358 | 0.02645 | 0.0004905 | 0.2368 | 0.03545 | 0.1986 | 0.213 µM | 1.3 µM | – | – | – | EC50 [1]: 2.03 µM; EC50 [2]: 2.49 µM; EC50 [3]: 0.925 µM
2 | CCCS(=O)(=O)c1nnnn1-c1cccc(OC)c1 [CIL15] | 0.02761 | −0.06757 | −0.05321 | 0.1287 | 0.0961 | −0.01238 | 0.02535 | −0.02453 | −0.01164 | −0.0004619 | 0.01287 | −0.03623 | 0.02391 | 0.0256 | −0.005629 | – | – | −0.01149 | −0.01026 | 0.01243 | –
3 | O=C(CCCCCN1C(=O)c2cccc3cccc(c23)C1=O)NO [Scriptaid] | −0.0206 | −0.07856 | 0.03167 | 0.2681 | 0.2406 | 0.004892 | 0.0289 | 0.03611 | 0.2114 | 0.1113 | 0.1384 | 0.02102 | 0.02804 | −0.0282 | 0.07545 | – | – | −0.005396 | −0.0185 | 0.1205 | –
4 | CC[C@@]1(O)C(=O)OCc2c1cc1n(c2=O)Cc2cc3ccccc3nc2-1 [Camptothecin] | −0.02027 | 0.03368 | 0.07983 | 0.1233 | 0.02899 | −0.01119 | −0.007898 | 0.003206 | 0.1164 | 0.02947 | 0.112 | −0.006852 | 0.02477 | 0.01408 | 0.02306 | – | – | 0.01158 | 0.04874 | 0.08241 | –
5 | O=C(CCl)N(c1ccc(Cl)cc1)c1c[nH]c2ccccc12 [CIL75] | 0.04653 | 0.01301 | 0.03092 | −0.009103 | 0.2049 | −1.616E−05 | 0.0459 | 0.01184 | 0.2292 | 0.146 | −0.01643 | −0.01449 | 0.1883 | 0.07275 | 0.2311 | 0.0598 µM | 0.314 µM | – | – | – | EC50 [1]: 1.1 µM; EC50 [2]: 1.04 µM; EC50 [3]: 0.341 µM
6 | CS[C@H]1SC[C@H]2C(=O)N(C)[C@@H](C(C)C)C(=O)OC[C@@H](NC(=O)c3cnc4ccccc4n3)C(=O)N[C@@H](C)C(=O)N(C)[C@@H]1C(=O)N(C)[C@@H](C(C)C)C(=O)OC[C@@H](NC(=O)c1cnc3ccccc3n1)C(=O)N[C@@H](C)C(=O)N2C [Echinomycin] | 0.3457 | 0.02426 | 0.04925 | 0.2015 | 0.09321 | −0.004325 | 0.002041 | 0.01199 | 0.2351 | 0.1205 | 0.2292 | 0.01082 | −0.01901 | −0.004369 | −0.001724 | – | – | 0.1681 | −0.04322 | 0.005973 | –
7 | Cc1ccc(O)c(/N=C/C=C/c2cccc(Br)c2)c1 [CIL27] | 0.0403 | −0.06604 | −0.08049 | 0.1399 | 0.05931 | 0.0171 | −0.02406 | −0.04381 | 0.02365 | 0.01472 | −0.01357 | 0.009474 | −0.05452 | 0.006509 | −0.03065 | – | – | 0.002404 | 0.0004949 | −0.003575 | –
8 | O=C1c2c(O)ccc(O)c2C(=O)c2c(NCCNCCO)ccc(NCCNCCO)c21 [Mitoxantrone] | 0.03352 | 0.06204 | 0.03746 | 0.1437 | 0.4538 | −0.05814 | 0.01069 | 0.007578 | 0.1162 | 0.04368 | 0.08733 | 0.004431 | −0.03038 | 0.003263 | 0.02288 | – | – | 0.02585 | −0.01862 | 0.0497 | –
9 | N/C(Cc1ccc(Cl)cc1)=N\OC(=O)c1cccc2ccccc12 [CIL70] | 0.1014 | −0.07036 | 0.002412 | 0.1304 | −0.0004925 | 0.02973 | 0.04884 | −0.006027 | 0.2633 | 0.2062 | 0.03108 | −0.008547 | 0.1293 | 0.07715 | 0.06301 | 1.76 µM | 14.8 µM | – | – | – | EC50 [1]: 7.1 µM; EC50 [2]: 18.6 µM; EC50 [3]: 13.1 µM
